Data from publication PMC4669759 (Cell Death & Disease, 2015).

Experiments:
[1] = molecular target: T1, BCL-XL–BCL-XS interactions (Homo sapiens, UniProt Q07817); assay: Mammalian two-hybrid assay, BCL-XL–BCL-XS, HeLa cells; assay type: cell-based; conditions: 24 h, luciferase two-hybrid
T1 construct: expressed in transfected cells; host or cells: HeLa cells stably expressing a GAL4-luciferase reporter
Method: (a) H929 cells were treated with increasing concentrations of A-1210477 for 4 h. […] All data represent the mean of triplicate experiments, with error bars indicating the S.D. (b) Quantitative measurement of protein–protein interactions using a luciferase-based mammalian two-hybrid assay. […] All data represent the means of triplicate experiments, with error bars indicating the S.Ds.
HeLa cells stably expressing a GAL4-luciferase reporter were seeded into 10 cm dishes at 5 × 10^5 cells per plate. In all, 24 μg of a plasmid expressing both the ‘bait' and ‘prey' fusion proteins (GAL4DBD-BIM and VP16AD-BCL-2, GAL4DBD-BCL-XL and VP16AD- BCL-XS, or GAL4DBD-MCL-1 and VP16AD-NOXA, respectively) were mixed with 1.5 ml OptiMEM (Invitrogen). Separately, 24 μl Lipofectamine 2000 (Invitrogen) were mixed with 1.5 ml OptiMEM. Both solutions were incubated for 5 min (RT) and then mixed together for 20 min. Three milliliters of the mixture was added to cells in 12 ml culture medium lacking antibiotics, incubated at 37 °C for 24 h, and then transferred to 96-well plates at 20 000 cells per well. Compounds were added in half-log dilutions, starting from 1 μM and ending at 0.0001 μM for 24 h, and luciferase activity was assessed using ONE-Glo reagent (Promega). All data were plotted as the percentage of complex remaining relative to untreated controls.

[2] = parameters: method as in PMID 25679114; conditions: cited from earlier work
[3] = tested on: RS4;11 cell line; assay: Cell viability, RS4;11 cells; assay type: cell-based; conditions: RS4;11, 48 h
Method: Figure 4 Indole-2-carboxylic acids induce the hallmarks of apoptosis in MCL-1-dependent cancer cell line H929. (a) Digitonin-permeabilized H929 cells were treated with 10 μM BH3 peptides for 4 h, and intact H929 cells were incubated with increasing concentrations (0.1–10 μM) of A-1208746 for 4 h before assessing the levels of cytochrome c released into the cytosol. (b) H929 and RS4;11 cells were incubated with increasing concentrations of MCL-1 inhibitors or the BCL-2-selective inhibitor ABT-199 (venetoclax) for 48 h before determining cell viability. Cell killing IC50s are plotted with each value representing the mean of three separate experiments. Error bars represent the S.E.M. (c) H929 cells were incubated with increasing concentrations of MCL-1 inhibitors in the presence or absence of the pan-caspase inhibitor QVD (100 μM) for 4 h before assessing caspase-3/-7 activation, mitochondrial membrane polarization, and the exposure of phosphatidylserine. […]
Adherent cell lines were seeded at 50 000 cells per well in 96-well plates and treated for 48 h with compounds diluted in half-log steps starting at 30 μM and ending at 0.001 μM. […] Effects on proliferation and viability were determined using CellTiter-Glo reagent from Promega (Madison, WI, USA) according to the manufacturer's instructions. IC50 values were determined by non-linear regression analysis of the concentration response data.

[4] = tested on: H23 cells; assay: Cell viability, H23 cells; assay type: cell-based, human
Method: Figure 5 A-1210477 kills MCL-1-dependent NSCLC cancer cell lines. NSCLC cell lines (a) H2110 or (c) H23 were transfected with a construct expressing the MCL1 CDS tagged with a Flag epitope or empty control vector. These cells were subsequently transfected with siRNAs targeting the MCL1 CDS, the MCL1 3′ UTRa or UTRb, or a scrambled control sequence. Cell viability was assessed 72 h later with MCL-1 and Flag immunoblots performed in parallel. (b) H2110 or (d) H23 cells were treated with increasing concentrations of A-1210477 for 72 h before assessing cell viability.
(§1) Adherent cell lines were seeded at 50 000 cells per well in 96-well plates and treated for 48 h with compounds diluted in half-log steps starting at 30 μM and ending at 0.001 μM. Multiple myeloma cell lines were seeded at 15 000–20 000 cells per well and treated similarly. Effects on proliferation and viability were determined using CellTiter-Glo reagent from Promega (Madison, WI, USA) according to the manufacturer's instructions. IC50 values were determined by non-linear regression analysis of the concentration response data.

[5] = tested on: OPM-2 cells; assay: Navitoclax / A-1210477 combination cell viability, OPM-2 cells; assay type: cell-based; conditions: OPM-2, 48 h
Method: Figure 6 A-1210477 synergizes with navitoclax to kill hematological and solid tumor cell lines. BxPC-3, EJ-1, H23, and OPM-2 cells were treated with increasing concentrations of navitoclax in the presence or absence of increasing concentrations of A-1210477 for 48 h before assessing cell viability. All data points represent the means of triplicate experiments, with error bars indicating the S.E.M. TEXT PRINTED IN THE PICTURE: A-1210477 + navitoclax: Bliss sum (BxPC-3): 716; Bliss sum (EJ-1): 464; Bliss sum (H23): 76; Bliss sum (OPM-2): 946 DOUBTS OF THE COPYIST ABOUT THIS PICTURE: The Bliss sums apply to the combination of A-1210477 and navitoclax. The picture prints the two names separately (legend heading and axis title), not as one joined label.
as §1

[6] = tested on: Bak-/- Bax-/- MEFs; assay: Cell viability, Bak-/- Bax-/- murine embryonic fibroblasts; assay type: cell-based; conditions: 48 h
Method: Supplementary Figure 4. […] Murine embryonic fibroblasts (MEFs) lacking Bak and Bax were treated with increasing concentrations of A-1155905, A-1208746, A-1210477, staurosporine or bortezomib for 48 h before assessing cell viability. Data represent the mean of triplicate experiments and error bars indicate the standard error of the mean.

T1 sequence (Q07817 whole entry, the tested form may be a part): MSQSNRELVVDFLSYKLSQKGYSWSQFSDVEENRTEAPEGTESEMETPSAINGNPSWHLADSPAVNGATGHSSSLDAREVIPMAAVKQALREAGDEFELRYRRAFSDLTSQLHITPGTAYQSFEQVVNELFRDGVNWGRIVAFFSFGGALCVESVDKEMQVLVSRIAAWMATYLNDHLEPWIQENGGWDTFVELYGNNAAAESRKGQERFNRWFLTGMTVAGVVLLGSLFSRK

## Cc1nn(C)c(COc2ccc(N3CCN(S(=O)(=O)N(C)C)CC3)cc2)c1-c1cccc2c(CCCOc3cccc4ccccc34)c(C(=O)O)n(CCN3CCOCC3)c12 [A-1210477]
[1]
  effect on BCL-XL–BCL-XS interactions: no effect
[2]
  human protein binding: > 99%
[3]
  effect on cell viability: no effect
[4]; H23
  IC50: < 10 µM
[4]; H23, 72 h
  EC50: 7.2 µM
[5]
  potentiation of navitoclax: substantially shifted the dose–response curve of navitoclax
[6]
  killing of Bak-/- Bax-/- MEFs: do not Kill
